BindingDB's records for doi:10.7270/Q2TX3CTT (Broad Institute, 2010)
Where a name gives a salt, the structure may show the parent alone.

target: Glycogen synthase kinase-3 beta (Homo sapiens, UniProt P49841); assay: GSK3beta kinase inhibitor potency, dose response, biochemical, luminescence, cell-free homogeneous, retest (AID 434954)
Sequence (P49841 whole entry): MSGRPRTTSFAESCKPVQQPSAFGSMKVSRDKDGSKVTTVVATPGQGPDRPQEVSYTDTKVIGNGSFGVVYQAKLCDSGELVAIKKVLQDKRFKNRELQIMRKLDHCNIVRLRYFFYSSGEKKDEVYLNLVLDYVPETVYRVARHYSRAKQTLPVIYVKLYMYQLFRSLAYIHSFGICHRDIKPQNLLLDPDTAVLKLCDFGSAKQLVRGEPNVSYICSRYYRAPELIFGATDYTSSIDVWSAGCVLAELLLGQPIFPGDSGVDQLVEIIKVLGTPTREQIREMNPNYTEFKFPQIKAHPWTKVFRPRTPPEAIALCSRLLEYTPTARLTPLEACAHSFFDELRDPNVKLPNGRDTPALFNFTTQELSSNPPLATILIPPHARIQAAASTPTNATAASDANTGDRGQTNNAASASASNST

Compound	EC50 [µM]
CCCCCc1cc(O)c2c(C)cc(=O)oc2c1 [5-hydroxy-4-methyl-7-pentyl-1-benzopyran-2-one]	> 300
Cc1cc(OCC(O)CNC(C)c2ccccc2)ccc1C(C)C (stereo not drawn) [1-(3-methyl-4-propan-2-ylphenoxy)-3-(1-phenylethylamino)-2-propanol;hydrochloride]	> 300
COc1cccc2cc(CC(=O)c3cc(C)ccc3C)c(=O)oc12 [MLS001198676]	> 300
O=C(Cc1ccc(F)cc1)NN=Cc1ccc(-c2ccc(Cl)c(C(=O)O)c2)o1	> 300
CN(C)Cc1c(O)ccc2c(=O)c(-c3ccccc3)c(C(F)(F)F)oc12	> 300
Nc1nonc1-n1nnc(C(=O)NN=Cc2ccc(Cl)cc2Cl)c1CN1CCCC1 [1-(4-azanyl-1,2,5-oxadiazol-3-yl)-N-[(2,4-dichlorophenyl)methylideneamino]-5-(pyrrolidin-1-ylmethyl)-1,2,3-triazole-4-carboxamide]	> 300
Cc1cccc(Nc2nc(N)c([N+](=O)[O-])c(NCCO)n2)c1 [2-(6-Amino-5-nitro-2-m-tolylamino-pyrimidin-4-ylamino)-ethanol]	5.91
Clc1cccc(CNc2nc(-c3cccnc3)nc3ccccc23)c1 [N-[(3-chlorophenyl)methyl]-2-(3-pyridinyl)-4-quinazolinamine]	> 300
CCOC(=O)Cc1csc(NC(=O)c2c(O)c3ccccc3n(CCC(C)C)c2=O)n1 [SMR000284490]	> 300
COc1cc(C(=O)OCC(=O)NC(N)=O)cc(CN2C(=O)c3ccccc3C2=O)c1OC	> 300
COc1cccc2c1cc1c(=O)n(CC(=O)NCCCN3CCCCC3)nc(C)n12 [2-(9-methoxy-4-methyl-1-oxo-[1,2,4]triazino[4,5-a]indol-2-yl)-N-[3-(1-piperidinyl)propyl]acetamide]	> 300
O=C1NCCCc2c1oc1ccc(O)cc21 [7-hydroxy-2,3,4,5-tetrahydro-[1]benzofuro[2,3-c]azepin-1-one]	2.07
Cc1cc(C)c(C#N)c(SCC(=O)c2ccc(Cl)cc2Cl)n1 [2-[2-(2,4-dichlorophenyl)-2-oxidanylidene-ethyl]sulfanyl-4,6-dimethyl-pyridine-3-carbonitrile]	> 300
CN(C)Cc1ccc(-c2nc3cccc4c3n2CCNC4=O)cc1	27.5
CCOC(=O)C1C(C)=Nc2ncnn2C1c1cc(OC)ccc1OC (stereo not drawn) [MLS000112815]	> 300
O=C(O)/C=C/c1cn(-c2ccccc2)nc1-c1cccc([N+](=O)[O-])c1 [MLS000774824]	> 300

Compound	EC50 [µM]
Fc1cccc(Cl)c1CSc1nnc(-c2ccncc2)o1 [2-[(2-chloro-6-fluorophenyl)methylthio]-5-pyridin-4-yl-1,3,4-oxadiazole]	9.25
COC(=O)c1ccc(CSc2nnc(-c3ccncc3)o2)o1 [methyl 5-({[5-(4-pyridinyl)-1,3,4-oxadiazol-2-yl]thio}methyl)-2-furoate]	12.5
Nc1nonc1-n1nnc(C(=O)NN=Cc2c(Cl)cccc2Cl)c1CN1CCOCC1 [1-(4-azanyl-1,2,5-oxadiazol-3-yl)-N-[[2,6-bis(chloranyl)phenyl]methylideneamino]-5-(morpholin-4-ylmethyl)-1,2,3-triazole-4-carboxamide]	55.2
CCC(C)Nc1nc(N)c([N+](=O)[O-])c(Nc2cc(OC)ccc2OC)n1 (stereo not drawn) [N2-butan-2-yl-N4-(2,5-dimethoxyphenyl)-5-nitro-pyrimidine-2,4,6-triamine]	0.539
O=C(Nc1ccc([N+](=O)[O-])cn1)C1CC1 [SMR000227137]	23.1
COc1ccccc1-c1cc2ccccc2[nH]1 [2-(1H-indol-2-yl)phenyl methyl ether]	> 300
Cc1ccc(C)c(N2CCN(C(=O)Cn3ncc4c([nH]c5ccc(C)cc54)c3=O)CC2)c1 [3-[2-[4-(2,5-dimethylphenyl)piperazin-1-yl]-2-oxidanylidene-ethyl]-8-methyl-2H-pyridazino[4,5-b]indol-4-one]	> 300
CCCN(CCC)Cc1c(C(=O)NN=Cc2ccco2)nnn1-c1nonc1N	> 300
COc1cc(C=C2SC(Nc3ccc(O)cc3)=NC2=O)cc(OC)c1O [MLS000715043]	> 300
COc1ccc(Oc2c(C)oc3c(CN(C)C)c(O)ccc3c2=O)cc1	> 300
COCC/N=C1\Sc2nc3c(C)cccc3cc2CN1Cc1ccco1 [SMR000122349]	> 300
CC(NCC1COc2ccccc2O1)C1COc2ccccc2O1 (stereo not drawn)	> 300
COC(=O)c1c(C)oc2ccc(OC(=O)c3cccs3)cc12 [methyl 2-methyl-5-thiophen-2-ylcarbonyloxy-1-benzofuran-3-carboxylate]	> 300
Cn1ncnc2c(=O)n(C)c(=O)nc1-2	62.7
c1ccc(CN=Nc2nccc(-c3cccnc3)n2)cc1	16.9

Now from value to compound:

EC50 [µM]	Compound
> 300	CNC(=O)c1ccccc1NC(=O)c1cccc(S(=O)(=O)N2CCC(C)CC2)c1 [N-methyl-2-({3-[(4-methylpiperidin-1-yl)sulfonyl]benzoyl}amino)benzamide]
> 300	Cc1ncc(CN2CCCC(C(=O)Nc3ccc(-c4cccc(F)c4)cc3)C2)cn1 (stereo not drawn) [N-[4-(3-fluorophenyl)phenyl]-1-[(2-methylpyrimidin-5-yl)methyl]piperidine-3-carboxamide]
> 300	COc1cccc(C(=O)NCC(=O)NN=C(C)C=Cc2ccccc2)c1 [MLS000723417]
> 300	COCCn1c(SCC(=O)Nc2ccc(S(N)(=O)=O)cc2)nc2ccccc21
> 300	CN1CCc2c(sc(NC(=O)Cc3ccccc3)c2C(N)=O)C1 [MLS000879155]
2.14	Cc1c([N+](=O)[O-])c2ccc(O)cc2n1-c1ccccc1 [2-methyl-3-nitro-1-phenylindol-6-ol]
> 300	CCOC(=O)c1ccc2ncc(C(=O)OCC)c(Nc3ccc(N4CCOCC4)cc3)c2c1 [diethyl 4-[(4-morpholin-4-ylphenyl)amino]quinoline-3,6-dicarboxylate]
> 300	CCOC(=O)c1sc(Nc2ccccc2)nc1C
> 300	COc1ccc2nc(NC(=O)CCNC(=O)c3ccccc3Cl)sc2c1 [2-chloro-N-[3-[(6-methoxy-1,3-benzothiazol-2-yl)amino]-3-oxopropyl]benzamide]
> 300	C=CCN(c1ccc(C(=O)Nc2ccc(C)c(C)c2)cc1)S(C)(=O)=O [N-(3,4-dimethylphenyl)-4-[methylsulfonyl(prop-2-enyl)amino]benzamide]
> 300	CCn1c(=O)cc(OCC(=O)N(C)c2ccccc2F)c2ccccc21 [2-(1-ethyl-2-oxidanylidene-quinolin-4-yl)oxy-N-(2-fluorophenyl)-N-methyl-ethanamide]
> 300	O=S(=O)(c1ccc(F)cc1)c1nc(-c2ccco2)oc1Nc1ccccc1 [4-(4-fluorophenyl)sulfonyl-2-(furan-2-yl)-N-phenyl-1,3-oxazol-5-amine]
> 300	COc1ccc(CN(CC(=O)NCc2ccccc2)C(=O)CCC(=O)Nc2ccccn2)cc1
14.7	CCOC(=O)c1nnn(-c2nonc2N)c1CSc1ccccc1 [ethyl 1-(4-amino-1,2,5-oxadiazol-3-yl)-5-[(phenylthio)methyl]-1H-1,2,3-triazole-4-carboxylate]
> 300	Cc1ccc(-c2nn(-c3ccccc3)cc2CO)cc1
> 300	COCCn1nnnc1C(c1cc2cc(C)ccc2[nH]c1=O)N1CCc2ccccc21 (stereo not drawn) [SMR000122998]
> 300	CCOC(=O)c1cnc2c(C)cccc2c1Nc1ccc(N2CCOCC2)cc1 [ethyl 8-methyl-4-[(4-morpholin-4-ylphenyl)amino]quinoline-3-carboxylate]
